Experimental data reported in patent US9850283B2, “Macrocyclic inhibitors of the PD-1/PD-L1 and CD80(B7-1)/PD-L1 protein/protein interactions” (BRISTOL-MYERS SQUIBB COMPANY, priority 2013, dated 2017).
Like-named read-outs stand apart in the source and are kept apart here. Starred links: 1 amine or outer side, 2 acyl side, 3 side chain; linkers in the order of their positions; H or OH if unused. Positions of bridges follow the written chain, without caps; N, C: chain ends. Non-standard residues stand in square brackets, D forms with d. Residues, ends and D or L forms follow the SMILES beside them. ξ: configuration not given here. X7 = COc1ccc(-c2[nH]c3ccccc3c2C[C@H](N[*:1])C(=O)[*:2])cc1; Pro(trans-4-cHex) = O=C(O)[C@@H]1C[C@@H](C2CCCCC2)CN1; Tyr(3-I) = N[C@@H](Cc1ccc(O)c(I)c1)C(=O)O; Phe(4-Cl) = N[C@@H](Cc1ccc(Cl)cc1)C(=O)O; Phe(4-F) = N[C@@H](Cc1ccc(F)cc1)C(=O)O; dDopa = N[C@H](Cc1ccc(O)c(O)c1)C(=O)O; Pro(3S-OH) = O=C(O)[C@H]1NCC[C@@H]1O; Bta = N[C@@H](Cc1csc2ccccc12)C(=O)O; cisHyp = O=C(O)[C@@H]1C[C@H](O)CN1; Hyp = O=C(O)[C@@H]1C[C@@H](O)CN1; NMeF = CN[C@@H](Cc1ccccc1)C(=O)O; NMeNle = CCCC[C@H](NC)C(=O)O; ξR = N=C(N)NCCCC(N)C(=O)O; NMeA = CN[C@@H](C)C(=O)O; Orn = NCCC[C@H](N)C(=O)O; Dab = NCC[C@H](N)C(=O)O; Dap = NC[C@H](N)C(=O)O; Sar = CNCC(=O)O

Tests used:
Human PD-L1/PD-1 = molecular target: T1, Human PD-L1/PD-1 (Homo sapiens, UniProt Q9NZQ7); experiment: HTRF PD-1-Ig/PD-L1-His binding assay (human PD-L1); conditions: cluster symbol; read-out: HTRF IC50 cluster
T1 construct: made in house; host or cells: HEK293T
T1 sequence (Q9NZQ7 with tags, fused parts or gaps): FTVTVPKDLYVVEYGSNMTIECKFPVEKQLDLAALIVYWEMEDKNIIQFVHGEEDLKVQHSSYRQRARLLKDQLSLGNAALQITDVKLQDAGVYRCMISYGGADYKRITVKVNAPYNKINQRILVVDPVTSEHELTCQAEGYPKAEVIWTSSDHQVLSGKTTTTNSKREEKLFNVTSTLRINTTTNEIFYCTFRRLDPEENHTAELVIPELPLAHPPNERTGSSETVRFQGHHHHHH
In short: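 Soluble Fc-fused PD-1 and His-tagged PD-L1 (truncated before the transmembrane region) were combined in dPBS with 0.1% (w/v) BSA and 0.05% (v/v) Tween-20. Binding was read by HTRF using europium cryptate anti-Ig antibody (1 nM final) and APC anti-His antibody (20 nM final).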

[1] = molecular target: T2, LK35.2-hPD-L1 cells / PE-labeled PD-1-Ig (Homo sapiens, UniProt Q9NZQ7); experiment: LK35.2-hPD-L1 cell binding high-content screening assay; format: cell-based; conditions: cluster symbol, read-out: CBA IC50 cluster
T2 construct: expressed in transfected cells; host or cells: LK35.2 mouse B cell line
T2 sequence (Q9NZQ7 19-290): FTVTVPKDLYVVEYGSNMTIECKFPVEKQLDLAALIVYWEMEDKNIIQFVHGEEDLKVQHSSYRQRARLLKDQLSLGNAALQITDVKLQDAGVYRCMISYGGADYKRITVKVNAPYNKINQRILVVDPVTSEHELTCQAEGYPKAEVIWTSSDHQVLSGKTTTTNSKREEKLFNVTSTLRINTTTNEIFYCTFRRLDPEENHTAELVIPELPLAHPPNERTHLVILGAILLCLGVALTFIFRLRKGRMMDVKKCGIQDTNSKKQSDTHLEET
In short: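 Binding of PE-conjugated human PD-1-Ig (1 nM final) to human PD-L1 stably expressed on a mouse B-cell line (LK35.2) was measured by high-content imaging after washes. Compound and labeled PD-1-Ig were co-incubated 1 h at 37 °C with cells in RPMI/10% FCS.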

[2] = cell line of CBA not given (LK35.2-hPD-L1 or 293T-hPD-L1)
[3] = cell binding assay, cell line not given

Compound	IC50 (Human PD-L1/PD-1)	IC50 [1, 2]	IC50 [1, 3]
CCCC[C@H]1C(=O)N(C)[C@@H](CCCC)C(=O)N[C@@H](CCCNC(=N)N)C(=O)N[C@H](C(=O)NCC(N)=O)CSCC(=O)N[C@@H](Cc2ccc(O)cc2)C(=O)N(C)[C@@H](C)C(=O)N[C@@H](CC(N)=O)C(=O)N2CCC[C@H]2C(=O)N[C@@H](C)C(=O)N[C@@H](CC(C)C)C(=O)N2C[C@@H](O)C[C@H]2C(=O)N[C@@H](Cc2c[nH]c3ccccc23)C(=O)N[C@@H](CO)C(=O)N[C@@H](Cc2c[nH]c3ccccc23)C(=O)N1C [Example 1142] ({CH2CO}-Y[NMeA]NPAL[cisHyp]WSW[NMeNle][NMeNle]RCG-NH2; thioether N-14)	6.76 to 30.3 nM	4.78 to 72.9 nM	
CCCC[C@H]1C(=O)N(C)CC(=O)N[C@@H](CC(=O)O)C(=O)N[C@@H](C(C)C)C(=O)N(C)[C@@H](Cc2ccccc2)C(=O)N[C@@H](Cc2ccc(O)cc2)C(=O)N(C)CC(=O)N[C@@H](Cc2ccc(Cl)cc2)C(=O)N[C@@H](Cc2ccc(O)cc2)C(=O)N[C@@H](CC(C)C)C(=O)N[C@H](C(=O)NCC(N)=O)CSCC(=O)N[C@@H](Cc2ccccc2)C(=O)N(C)[C@@H](Cc2ccccc2)C(=O)N1C [Example 3546] ({CH2CO}-F[NMeF][NMeNle][Sar]DV[NMeF]Y[Sar][Phe(4-Cl)]YLCG-NH2; thioether N-13)	> 30.5 nM		> 74.3 nM
CCCC[C@H]1C(=O)N(C)[C@@H](CCCC)C(=O)N[C@@H](CCCN)C(=O)N[C@H](C(=O)NCC(N)=O)CSCC(=O)N[C@@H](Cc2ccc(O)cc2)C(=O)N2C[C@@H](N)C[C@H]2C(=O)N[C@@H](CC(N)=O)C(=O)N2CCC[C@H]2C(=O)N[C@@H](Cc2cnc[nH]2)C(=O)N[C@@H](CC(C)C)C(=O)N2C[C@H](O)C[C@H]2C(=O)N[C@@H](Cc2c[nH]c3ccccc23)C(=O)N[C@@H](CO)C(=O)N[C@@H](Cc2c[nH]c3ccccc23)C(=O)N1C [Example 1188]	6.76 to 30.3 nM	4.78 to 72.9 nM	
CCCC[C@H]1C(=O)N(C)CC(=O)N[C@@H](CC(=O)O)C(=O)N[C@@H](C(C)C)C(=O)N(C)[C@@H](Cc2ccccc2)C(=O)N[C@@H](Cc2ccc(O)cc2)C(=O)N(C)CC(=O)N[C@@H](Cc2c[nH]c3ccccc23)C(=O)N[C@H](Cc2ccc(O)c(O)c2)C(=O)N[C@@H](CC(C)C)C(=O)N[C@H](C(=O)NCC(N)=O)CSCC(=O)N[C@@H](Cc2ccccc2)C(=O)N(C)[C@@H](Cc2ccccc2)C(=O)N1C [Example 3579] ({CH2CO}-F[NMeF][NMeNle][Sar]DV[NMeF]Y[Sar]W[dDopa]LCG-NH2; thioether N-13)	6.76 to 30.3 nM		0.158 to 4.71 nM
CCCC[C@H]1C(=O)N(C)[C@@H](CCCC)C(=O)N[C@@H](CCCNC(=N)N)C(=O)N[C@H](C(=O)NCC(N)=O)CSCC(=O)N[C@@H](Cc2ccc(O)cc2)C(=O)N2CC[C@H](O)[C@H]2C(=O)N[C@@H](CC(N)=O)C(=O)N2CCC[C@H]2C(=O)N[C@@H](Cc2cnc[nH]2)C(=O)N[C@@H](CC(C)C)C(=O)N2CCC[C@H]2C(=O)N[C@@H](Cc2c[nH]c3ccccc23)C(=O)N[C@@H](CO)C(=O)N[C@@H](Cc2csc3ccccc23)C(=O)N1C [Example 1227] ({CH2CO}-Y[Pro(3S-OH)]NPHLPWS[Bta][NMeNle][NMeNle]RCG-NH2; thioether N-14)	> 30.5 nM	> 74.3 nM	
CCCC[C@H]1C(=O)N(C)CC(=O)N[C@@H](CC(=O)O)C(=O)N[C@@H](C(C)C)C(=O)N(C)[C@@H](Cc2ccccc2)C(=O)N[C@@H](Cc2ccc(O)c(I)c2)C(=O)N(C)CC(=O)N[C@@H](Cc2c[nH]c3ccccc23)C(=O)N[C@@H](Cc2ccc(O)cc2)C(=O)N[C@@H](CC(C)C)C(=O)N[C@H](C(=O)NCC(N)=O)CSCC(=O)N[C@@H](Cc2ccccc2)C(=O)N(C)[C@@H](Cc2ccccc2)C(=O)N1C [Example 3111] ({CH2CO}-F[NMeF][NMeNle][Sar]DV[NMeF][Tyr(3-I)][Sar]WYLCG-NH2; thioether N-13)	> 30.5 nM	4.78 to 72.9 nM	
CCCC[C@H]1C(=O)N(C)[C@@H](CCCC)C(=O)N[C@@H](CCC(=O)O)C(=O)N[C@H](C(=O)NCC(N)=O)CSCC(=O)N[C@@H](Cc2ccc(O)cc2)C(=O)N(C)[C@@H](C)C(=O)N[C@@H](CC(=O)O)C(=O)N2CCC[C@H]2C(=O)N[C@@H](Cc2c[nH]cn2)C(=O)N[C@@H](CCCCN)C(=O)N2C[C@H](C3CCCCC3)C[C@H]2C(=O)N[C@@H](Cc2c[nH]c3ccccc23)C(=O)N[C@@H](CCCCN)C(=O)N[C@@H](Cc2c[nH]c3ccccc23)C(=O)N1C [Example 14008] ({CH2CO}-Y[NMeA]DPHK[Pro(trans-4-cHex)]WKW[NMeNle][NMeNle]ECG-NH2; thioether N-14)	0.385 to 6.74 nM		0.158 to 4.71 nM

Continued, values first:

IC50 (Human PD-L1/PD-1)	IC50 [1, 2]	IC50 [1, 3]	Compound
0.385 to 6.74 nM	0.158 to 4.71 nM		CCCC[C@H]1C(=O)N(C)CC(=O)N[C@@H](CC(=O)O)C(=O)N[C@@H](C(C)C)C(=O)N(C)[C@@H](Cc2ccccc2)C(=O)N[C@@H](Cc2ccc(O)cc2)C(=O)N(C)CC(=O)N[C@@H](Cc2csc3ccccc23)C(=O)N[C@@H](Cc2ccc(O)cc2)C(=O)N[C@@H](CC(C)C)C(=O)N[C@H](C(=O)NCC(N)=O)CSCC(=O)N[C@@H](Cc2ccc(F)cc2)C(=O)N(C)[C@@H](Cc2ccccc2)C(=O)N1C [Example 3116] ({CH2CO}-[Phe(4-F)][NMeF][NMeNle][Sar]DV[NMeF]Y[Sar][Bta]YLCG-NH2; thioether N-13)
0.385 to 6.74 nM	0.158 to 4.71 nM		CCCC[C@H]1C(=O)N(C)[C@@H](CCCC)C(=O)N[C@@H](CCCN)C(=O)N[C@H](C(=O)NCC(N)=O)CSCC(=O)N[C@@H](Cc2ccc(O)cc2)C(=O)N(C)[C@@H](C)C(=O)N[C@@H](CC(N)=O)C(=O)N2CCC[C@H]2C(=O)N[C@@H](CN)C(=O)N[C@@H](CC(=O)O)C(=O)N2C[C@H](O)C[C@H]2C(=O)N[C@@H](Cc2c[nH]c3ccccc23)C(=O)N[C@@H](CCN)C(=O)N[C@@H](Cc2csc3ccccc23)C(=O)N1C [Example 1186] ({CH2CO}-Y[NMeA]NP[Dap]D[Hyp]W[Dab][Bta][NMeNle][NMeNle][Orn]CG-NH2; thioether N-14)
0.385 to 6.74 nM		4.78 to 72.9 nM	CCCC[C@H]1C(=O)N(C)[C@@H](CCCC)C(=O)N[C@@H](Cc2ccccn2)C(=O)N[C@H](C(=O)NCC(N)=O)CSCC(=O)N[C@@H](Cc2ccc(O)cc2)C(=O)N(C)[C@@H](C)C(=O)N[C@@H](CC(N)=O)C(=O)N2CCC[C@H]2C(=O)N[C@@H](Cc2cnc[nH]2)C(=O)N[C@@H](CC(C)C)C(=O)N2C[C@H](O)C[C@H]2C(=O)N[C@@H](Cc2c[nH]c3ccccc23)C(=O)N[C@@H](CO)C(=O)N[C@@H](Cc2c[nH]c3ccccc23)C(=O)N1C [Example 7032]
0.385 to 6.74 nM		0.158 to 4.71 nM	CCCC[C@H]1C(=O)N(C)[C@@H](CCCC)C(=O)N[C@@H](CCC(=O)O)C(=O)N[C@H](C(=O)NCC(N)=O)CSCC(=O)N[C@@H](Cc2ccc(O)cc2)C(=O)N(C)[C@@H](C)C(=O)N[C@@H](CC(N)=O)C(=O)N2CCC[C@H]2C(=O)N[C@@H](Cc2c[nH]cn2)C(=O)N[C@@H](CCC(N)=O)C(=O)N2C[C@H](O)C[C@H]2C(=O)N[C@@H](Cc2c[nH]c3ccccc23)C(=O)N[C@@H](CCCCN)C(=O)N[C@@H](Cc2c[nH]c3ccccc23)C(=O)N1C [Example 5106] ({CH2CO}-Y[NMeA]NPHQ[Hyp]WKW[NMeNle][NMeNle]ECG-NH2; thioether N-14)
0.385 to 6.74 nM		0.158 to 4.71 nM	CCCC[C@H]1C(=O)N(C)[C@@H](CCCC)C(=O)N[C@@H](CCCNC(=N)N)C(=O)N[C@H](C(=O)NCC(N)=O)CSCC(=O)N[C@@H](Cc2ccc(OC)cc2)C(=O)N(C)[C@@H](C)C(=O)N[C@@H](CC(N)=O)C(=O)N2CCC[C@H]2C(=O)N[C@@H](CN)C(=O)N[C@@H](CC(C)C)C(=O)N2C[C@H](O)C[C@H]2C(=O)N[C@@H](Cc2c[nH]c3ccccc23)C(=O)N[C@@H](CO)C(=O)N[C@@H](Cc2c[nH]c3ccccc23)C(=O)N1C [Example 7039] ({CH2CO}-Y(Me)[NMeA]NP[Dap]L[Hyp]WSW[NMeNle][NMeNle]RCG-NH2; thioether N-14)
0.385 to 6.74 nM		0.158 to 4.71 nM	CCCC[C@H]1C(=O)N(C)[C@@H](CCOC)C(=O)N[C@@H](CCCNC(=N)N)C(=O)NC(C(=O)NCC(N)=O)CSCC(=O)N[C@@H](Cc2ccc(O)cc2)C(=O)N(C)[C@@H](C)C(=O)N[C@@H](CC(N)=O)C(=O)N2CCC[C@H]2C(=O)N[C@@H](Cc2cnc[nH]2)C(=O)N[C@@H](CC(C)C)C(=O)N2C[C@H](O)C[C@@H]2C(=O)N[C@@H](Cc2c[nH]c3ccccc23)C(=O)N[C@@H](CO)C(=O)N[C@@H](Cc2c[nH]c3ccccc23)C(=O)N1C (stereo partly drawn) [Example 9003]
0.385 to 6.74 nM		0.158 to 4.71 nM	CCCC[C@H]1C(=O)N(C)[C@@H](CCCC)C(=O)NC(CCCNC(=N)N)C(=O)N[C@H](C(=O)NCC(N)=O)CSCC(=O)N[C@@H](Cc2ccc(O)cc2)C(=O)N(C)[C@@H](C)C(=O)N[C@@H](CC(N)=O)C(=O)N2CCC[C@H]2C(=O)N[C@@H](CN)C(=O)N[C@@H](CC(C)C)C(=O)N2CCC[C@H]2C(=O)N[C@@H](Cc2c[nH]c3ccccc23)C(=O)N[C@@H](CO)C(=O)N[C@@H](Cc2c(-c3ccc(OC)cc3)[nH]c3ccccc23)C(=O)N1C (stereo partly drawn) [Example 7008] ({CH2CO}-Y[NMeA]NP[Dap]LPWS[X7][NMeNle][NMeNle][ξR]CG-NH2; thioether N-14)
0.385 to 6.74 nM		4.78 to 72.9 nM	CCCC[C@H]1C(=O)N(C)[C@@H](CCCC)C(=O)N[C@@H](CC(C)C)C(=O)N[C@H](C(=O)NCC(N)=O)CSCC(=O)N[C@@H](Cc2ccc(O)cc2)C(=O)N(C)[C@@H](C)C(=O)N[C@@H](CC(N)=O)C(=O)N2CCC[C@H]2C(=O)NCC(=O)N[C@@H](CCC(N)=O)C(=O)N2C[C@H](O)C[C@H]2C(=O)N[C@@H](Cc2c[nH]c3ccccc23)C(=O)N[C@@H](CO)C(=O)N[C@@H](Cc2c[nH]c3ccccc23)C(=O)N1C [Example 5127] ({CH2CO}-Y[NMeA]NPGQ[Hyp]WSW[NMeNle][NMeNle]LCG-NH2; thioether N-14)
